Measurements: patent US20060247420A1, “Immune cell recptor ligand and immune cell receptor” (priority 2002, published 2006)

Tests used:
[1] = test system: Letal mRNA in A2008 ovarian carcinoma cell line; test: Letal mRNA expression in treated A2008 cells, real-time quantitative RT-PCR (TaqMan); assay type: cell-based, human
Protocol: Quantification of Letal by real-time quantitative RT-PCR. Letal expression was analyzed by TaqMan analysis as previously described (Garcia et al, FASEB J 15(10):1819-1821 (2001)). The Letal system consisted of the primers: Letal.F, 5′-[…]-3′ (SEQ ID NO:13); Letal.R, 5′-[…]-3′ (SEQ ID NO:14), and the probe Letal.P, 5′-(FAM)[…] (SEQ ID NO:15) (TAMRA)-3′. The cDNA load was normalized to human GAPDH with primers GAPDH F: 5′-[…]-3′ (SEQ ID NO:16) and GAPDH R: 5′[…]-3′ (SEQ ID NO:17) and the probe GAPDH.P: 5′(FAM) […] (TAMRA)-3′ (SEQ ID NO:18).
Tissues, cell lines and purification of cells. Normal human tissues were obtained from the Cooperative Human Tissue Network (Zhang et al, N. Engl. J. Med. 348(3):203-213 (2003)). A2008 ovarian carcinoma cell line was treated for 24 h with serum-free medium (control) or serum-free medium containing either 10 U/ml interleukin (IL)-1β, 10 ng/ml tumor necrosis factor (TNF-α), 40 ng/ml interferon (IFNγ), 0.5 μg/ml Lypopolyssaccaride (LPS), or 10 ng/ml TNF-α plus 40 ng/ml IFN-γ. 10 ng/ml PMA was kept for 4 hs and retinoic acid for 24, 48, and 72 hs. All the cytokines were from Peprotech (Rocky Hill, N.J.), except retinoic acid (Sigma, St Louis, Mo.). Additionally, cells were cultured in media without glucose for 48 hs or under hypoxia (1.5% O2) for 16 hs. Fresh peripheral blood lymphocytes were obtained by leukapheresis and elutriation. […]

[2] = test system: Fas on peripheral CD8^+ T-cells; test: Fas expression on stimulated CD8+ T-cells, flow cytometry; assay type: cell-based, human; settings: 4 days stimulation; compared to CD3/CD28 costimulated T-cells
Protocol: (§1) Apoptosis assay. The percentage of apoptotic cells was determined after 17 h incubation with 50 μM cisplatin or 18 hs exposure to 0.1 μg/ml anti-CD95 mAb (EOS9.1; Pharmingen) by using the TACS annexin-V apoptosis detection kit, according to the manufacturer's instructions (R & D Systems). Fas expression was determined by flow cytometry by using EOS9.1 as a primary Ab and a PE-labeled anti-mouse IgM (R6-60.2; Pharmingen) as a second Ab.
Letal engagement protects CD8^+ T-cells from FasL-induced apoptosis. […] Because ovarian carcinomas express FasL and other lymphocyte-depleting death ligands (Rabinowich et al, J. Clin. Invest. 101:2579-2588 (1998)), the prevalence of FasL expression and its impact on TILs was determined in 42 stage III ovarian carcinoma specimens. Strong FasL immunoreactivity was detected in tumor cells in areas of selected specimens (FIG. 10A), as well as in a proportion of stromal leukocytes. To test whether Letal promotes the generation of activated T-cell subpopulations that are able to resist the pro-apoptotic tumor microenvironment, peripheral CD8^+ T-cells were stimulated for 4 days with CD3/Letal, CD3/CD28, or anti-CD3 alone, and expression of Fas was measured by flow cytometry. […]

peripheral CD8^+ T-cells [3] = test: Glucose uptake with [3H]-2-deoxyglucose in stimulated CD8+ T-cells; assay type: cell-based, human; settings: 20 hr stimulation
Source text: (§2) CD8^+ lymphocyte stimulation, cytokine release and glucose metabolism analysis. To analyze the effects of Letal on the T-cell proliferation and production of cytokines, a previously described artificial antigen-presenting cell (aAPC) model was used (Maus et al, Nat. Biotechnol. 20:143-148 (2002)). Briefly, the system is based on the stable expression of the human low-affinity Fcγ receptor, CD32, on K562 cells (K32 cell line). K32 cell-based aAPCs were additionally transduced with Letal or with the empty vector as described above, irradiated with 100Gy, and washed twice with RPMI medium. Letal^+-K32 cells or mock transductants were loaded, when indicated, with anti-CD3 (OKT3), or anti-CD3 plus anti-CD28 (mAbs; 9.3) monoclonal antibodies at 0.5 μg/ml for 10 min at room temperature. Loaded aAPCs were mixed with CD8^+ T-cells at a 1:2 ratio and the T-cell concentration was maintained at 0.5×10^6 cells/ml throughout the culture. Cultures were pulsed with 1 μCi of [^3H] thymidine from day 2 to day 5 and incorporated radioactivity was determined using a 1450 Microbeta scintillation counter (Wallac, Turku, Finland). The amounts of secreted IL-2 and IFN-γ were determined by commercial ELISA, following the manufacturer's instructions (R & D Systems). […]
Glucose uptake rates were next measured with [^3H]-2-deoxyglucose in cells stimulated as described above. […]

[4] = test system: glucose transporter Glut-1 in peripheral CD8^+ T-cells; test: Glut-1 expression in stimulated CD8+ T-cells, flow cytometry; assay type: cell-based, human; settings: 20 hr stimulation
Source text: as §2, with “Letal^+-K32 cells or mock transductants were loaded, when indicated, with anti-CD3 (OKT3), or anti-CD3 plus anti-CD28 (mAbs; 9.3) monoclonal antibodies at 0.5 μg/ml for 10 min at room temperature. Loaded aAPCs were mixed with CD8^+ T-cells at a 1:2 ratio and the T-cell concentration was maintained at 0.5×10^6 cells/ml throughout the culture.” left out
Letal signaling increases glucose transporter expression and glucose uptake during T-cell activation. […] To test whether Letal may have a similar effect during T-cell activation, peripheral CD8^+ T-cells were stimulated for 20 hr with anti-CD3, anti-CD3/anti-CD28, anti-CD3/Letal, or Letal alone and the expression of the glucose transporter Glut-1 was analyzed by flow cytometry. […]

[5] = test system: NKG2D on peripheral CD8^+ T-cells; test: NKG2D expression on CD8+ lymphocytes after co-culture with K32 aAPCs, flow cytometry; assay type: cell-based, human; settings: peripheral CD8^+ T-cells co-cultured 4 days with K32 aAPCs; versus mock-transduced K32
Source text: as §2, with “lymphocyte stimulation and” for “lymphocyte stimulation,”, “cytokine release.” for “cytokine release and glucose metabolism analysis.”, “Biotechnol. 20(2):143-148” for “Biotechnol. 20:143-148”, “Loaded &APCs” for “Loaded aAPCs”, “and IFNγ” for “and IFN-γ”, “Systems). Flow cytometry was performed with a FACScalibur (BD Biosciences, San Jose, Calif.).” for “Systems).”

peripheral CD8^+ T-cells [6] = test: Cisplatin-induced apoptosis of pre-stimulated CD8+ lymphocytes, annexin-V; assay type: cell-based, human; settings: pre-stimulated 3 days; 50 μM cisplatin for 17 hr
Protocol: as §1
Cytotoxic chemotherapy can, however, deplete tumor-specific effector T-cells (Lee et al, Nat. Med. 5:677-685 (1999)). Because the glycolytic pathway is implicated in lymphocyte survival (Plas et al, Nat. Immunol. 3:515-521 (2002)), a determination was made as to whether Letal could protect T-cells from early apoptotic death induced by genotoxic drugs.

peripheral CD8^+ T-cells [7] = test: CD8+ lymphocyte proliferation/expansion with K32 aAPCs ([3H] thymidine); assay type: cell-based, human; settings: day 5; three independent experiments
Source text: as §2, with “lymphocyte stimulation and” for “lymphocyte stimulation,”, “cytokine release.” for “cytokine release and glucose metabolism analysis.”, “Biotechnol. 20(2):143-148” for “Biotechnol. 20:143-148”, “Loaded &APCs” for “Loaded aAPCs”, “and IFNγ” for “and IFN-γ”, “Systems). Flow cytometry was performed with a FACScalibur (BD Biosciences, San Jose, Calif.).” for “Systems).”

[8] = molecular target: T1, Lymphocyte Effector cell Toxicity Activating Ligand (Letal) (human, UniProt Q8TD07 29-263); test: flow cytometry, 3 µg/ml NKG2D/Fc on Letal-transduced K562 and SKOV3 cells, detected with anti-human IgG mAb
T1 construct: Expressed from the complete open reading frame by retroviral transduction on K562 and SKOV3 cells; also called ULBP4; RAET1E
T1 sequence: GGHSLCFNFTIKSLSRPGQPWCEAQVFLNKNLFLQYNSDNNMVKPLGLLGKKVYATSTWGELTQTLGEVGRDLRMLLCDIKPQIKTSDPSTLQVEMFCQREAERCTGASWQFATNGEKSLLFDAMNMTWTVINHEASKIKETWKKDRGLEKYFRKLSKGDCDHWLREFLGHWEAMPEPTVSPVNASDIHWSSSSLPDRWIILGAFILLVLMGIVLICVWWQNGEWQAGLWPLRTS
Source text: Constructs and generation of antibodies. SKOV3 and K562 cells were transduced using retroviral vector MIGR1, generously provided by Warren Pear (University of Pennsylvania). Letal or mock transductants expressing equivalent levels of the green fluorescent protein were sorted and cultured by standard procedures. […] Anti-human IgG mAb (G18-145; Pharmingen, San Diego, Calif.) was used to detect the chimerical molecule.
Letal is a ligand of NKG2D expressed in a variety of normal tissues. […] Expression of the Letal protein was confirmed on transduced cells, but not on mocked transductants, by flow cytometry using serum of Letal-immunized mice (FIG. 1D). […] To evaluate the binding of NKG2D to transduced Letal, a recombinant soluble NKG2D-Fc fusion protein was used, containing the ectodomain of the immunoreceptor (Phe78 through Val216). […] Treatment with phospholipase C decreased binding of sNKG2D to Letal⁺ K562 cells, although binding was higher than to control cells.

How did the “decrease of Letal mRNA expression” value ([1]; maximum, after 72 hr stimulation) turn out when CC1=C(/C=C/C(C)=C/C=C/C(C)=C/C(=O)O)C(C)(C)CCC1 [retinoic acid] was run?
Its value is 6 fold.

For TNF-α, which “increase of basal Letal mRNA levels” value ([1]; TNF-α 10 ng/ml, 24 h) is on record?
Its value is 3 fold.

“anti-CD3: anti-CD3 (OKT3) monoclonal antibody loaded on Letal^− K32 aAPCs [reference compound]” was tested. Which Fas expression [2] did it give?
The Fas expression was “markedly higher”.

What about the glucose uptake rate (peripheral CD8^+ T-cells [3]) of the same molecule?
Its glucose uptake rate is “little to no effect”.

And the “cells with altered Glut-1 expression” value [4]?
The value was 11%.

What about the “increase of NKG2D expression” value [5] of the same molecule?
The value was “same result than CD3/Letal stimulation”.

What about the apoptosis after cisplatin (peripheral CD8^+ T-cells [6]) of the same molecule?
Its apoptosis after cisplatin is “higher percentage of apoptotic cells”.

And the “fewer CD8^+ cells with CD3 stimulation in the absence of Letal” value (peripheral CD8^+ T-cells [7])?
The value was 29%.

B1: recombinant human NKG2D/Fc chimera (R & D Systems) (Fc fusion, UniProt P26718 78-216, looked up)
chain: FLNSLFNQEVQIPLTESYCGPCPKNWICYKNNCYQFFDESKNWYESQASCMSQNASLLKVYSKEDQDLLKLVKSYHWMGLVHIPTNGSWQWEDGSILSPNLLTIIEMQKGDCALYASSFKGYIENCSTPNTYICMQRTV
notes: range 78-216; Bought reagent; also called NKG2D-Fc protein; recombinant soluble NKG2D-Fc fusion protein; Fc part of the bought chimera not given, detected with anti-human IgG mAb
Does B1 bind [8]?
Result: binds
